Measurements reported in patent EP4570793A1, “5-HT2A RECEPTOR INVERSE AGONIST, AND PREPARATION METHOD THEREFOR AND USE THEREOF” (Luye Innomind Pharma Shijiazhuang Co., Ltd., priority 2022, dated 2024).
pIC50: −log10 of the molar value. Like-named read-outs stand apart in the source and are kept apart here.

Columns and labels:
5-HT2A receptor = 5-HT2A receptor (Homo sapiens, UniProt P28223); experiment: Assay for 5-HT2A receptor inverse agonist activity (NIH3T3-5-HT2A R cells, Bright-Glo luciferase, cell inhibition rate); conditions: for IC50: 5-HT2A inverse agonist activity IC50 (nM), NIH3T3-5HT2A R cells, 120 h, luminescence
Chain of 5-HT2A receptor (P28223 whole entry): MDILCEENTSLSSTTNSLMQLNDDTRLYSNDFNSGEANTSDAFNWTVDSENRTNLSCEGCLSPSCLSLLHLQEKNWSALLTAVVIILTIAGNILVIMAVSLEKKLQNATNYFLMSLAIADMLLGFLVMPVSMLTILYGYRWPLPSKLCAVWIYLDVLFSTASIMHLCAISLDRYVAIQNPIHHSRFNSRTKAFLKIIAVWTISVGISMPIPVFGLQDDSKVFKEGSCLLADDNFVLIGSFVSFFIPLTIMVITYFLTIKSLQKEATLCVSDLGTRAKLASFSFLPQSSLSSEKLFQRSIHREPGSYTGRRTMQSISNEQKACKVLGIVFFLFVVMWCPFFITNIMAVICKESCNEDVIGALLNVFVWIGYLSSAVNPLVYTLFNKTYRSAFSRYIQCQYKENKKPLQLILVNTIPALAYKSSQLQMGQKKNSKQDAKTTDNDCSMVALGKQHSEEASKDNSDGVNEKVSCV
Protocol: Assay for 5-HT2A Receptor Inverse Agonist Activity
• Cell line: adherent cells NIH3T3-5-HT2A R • Cell culture medium: DMEM + 10% FBS (purchased from GBICO) • Cell culture plate: 96-well white/clear bottom plate (purchased from Perkin Elmer) • Detection kit: Bright-Glo™ Luciferase (purchased from Promega) • Detection instrument: BioTek multimode microplate reader
NIH3T3-5HT2A R cells in the logarithmic growth phase were seeded into a 96-well white/clear bottom plate at a density of 1000 cells/well and then cultured overnight in an incubator at 37 °C with 5% CO2. […] Duplicate wells were set up for each concentration. […] After the drug addition, the cells were cultured in the incubator at 37 °C with 5% CO2 for another 120 h. On the sixth day, a Bright-Glo™ Luciferase reagent was added to the cells in a volume equal to that of the cell culture medium. The plate was then incubated in the dark at room temperature for 20 min, with the plate shaker vibrating once every 5 min. The luminescence intensity was detected using a microplate reader, and the cell inhibition rate was calculated. Data were processed using GraphPad Prism 7.0 to obtain the cell inhibition rate curve and calculate IC50.

hERG potassium channels = hERG potassium channels (Homo sapiens, UniProt Q12809); experiment: cell-based
Chain of hERG potassium channels (Q12809 whole entry): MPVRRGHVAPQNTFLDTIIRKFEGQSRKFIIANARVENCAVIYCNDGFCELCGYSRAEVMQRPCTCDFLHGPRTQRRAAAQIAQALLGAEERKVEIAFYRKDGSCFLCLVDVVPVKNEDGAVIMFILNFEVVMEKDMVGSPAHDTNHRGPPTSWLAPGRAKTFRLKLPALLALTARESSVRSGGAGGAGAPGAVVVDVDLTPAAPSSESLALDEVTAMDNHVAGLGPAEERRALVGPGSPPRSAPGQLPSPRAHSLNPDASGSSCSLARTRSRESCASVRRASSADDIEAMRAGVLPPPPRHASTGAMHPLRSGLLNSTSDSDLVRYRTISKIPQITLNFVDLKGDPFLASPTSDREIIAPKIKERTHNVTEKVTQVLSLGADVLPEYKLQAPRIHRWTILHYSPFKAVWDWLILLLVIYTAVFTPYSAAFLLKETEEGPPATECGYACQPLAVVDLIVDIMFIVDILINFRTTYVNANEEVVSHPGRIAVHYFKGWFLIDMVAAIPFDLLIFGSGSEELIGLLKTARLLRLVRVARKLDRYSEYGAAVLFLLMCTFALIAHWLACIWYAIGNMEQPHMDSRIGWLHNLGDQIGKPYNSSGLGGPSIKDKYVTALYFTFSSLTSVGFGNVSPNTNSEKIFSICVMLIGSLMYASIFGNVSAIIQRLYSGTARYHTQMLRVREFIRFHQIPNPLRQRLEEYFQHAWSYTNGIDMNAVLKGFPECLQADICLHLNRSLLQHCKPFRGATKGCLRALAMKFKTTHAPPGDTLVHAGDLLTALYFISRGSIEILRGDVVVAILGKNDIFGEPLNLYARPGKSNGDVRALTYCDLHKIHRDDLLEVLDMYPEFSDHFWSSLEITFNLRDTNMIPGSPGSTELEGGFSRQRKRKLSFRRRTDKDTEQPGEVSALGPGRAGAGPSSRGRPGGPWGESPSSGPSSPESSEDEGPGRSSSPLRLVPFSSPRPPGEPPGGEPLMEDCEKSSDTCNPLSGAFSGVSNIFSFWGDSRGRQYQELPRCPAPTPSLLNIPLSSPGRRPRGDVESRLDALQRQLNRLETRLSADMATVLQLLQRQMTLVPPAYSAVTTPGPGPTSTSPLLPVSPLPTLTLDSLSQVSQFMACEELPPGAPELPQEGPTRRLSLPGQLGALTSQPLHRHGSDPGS
Protocol: • Species & strain: CHO-hERG cell line (Chinese hamster ovary cells stably expressing hERG channels) • Culture medium: 90% F12, 10% fetal bovine serum, 100 µg/mL G418, and 100 µg/mL Hygromycin B • Culture conditions: incubator at 37 °C with 5% CO2 • Cryopreservation condition: liquid nitrogen
On the day of the test, the compound was diluted with DMSO to an intermediate concentration. Then, 10 µL of the intermediate-concentration compound was transferred to 4990 µL of extracellular fluid, achieving a 500-fold dilution to obtain the final concentration to be tested.
hERG potassium channel currents were recorded at room temperature by the whole-cell patch clamp technique in the CHO (Chinese hamster ovary) cells stably expressing hERG potassium channels. Glass microelectrodes were formed by pulling a glass electrode blank (BF150-86-10, Sutter) using a puller. The tip resistance after perfusion of electrode internal solution was about 2-5 MΩ. The glass microelectrodes could be connected to a patch clamp amplifier after being inserted into amplifier probes. The clamping voltage and data recording were controlled and recorded by a computer with a pClamp 10 software, with a sampling frequency of 10 kHz and a filtering frequency of 2 kHz. After achieving the whole-cell recording, the cells were clamped at -80 mV. The step voltage evoking hERG potassium current (IhERG) was changed from -80 mV to +20 mV by applying a 2 s depolarization voltage, followed by repolarization to -50 mV for 1 s, and then returned to -80 mV. This voltage stimulation was applied every 10 s, and after it was determined that the hERG potassium currents were stable (1 min), the administration process was started. Each test concentration of the compound was applied for at least 1 min, and at least 2 cells (n ≥ 2) were tested for each concentration.

[1] = In-vitro liver microsomal stability (rat); assay type: in vitro ADME; conditions: Rat liver microsomes, 1 µM, 0.5 mg/mL, NADPH
Protocol: (§1) Test Example 3. Evaluation of In-Vitro Liver Microsomal Stability
(§2) • 1) Preparation of test sample working solution: A test sample was diluted to 100 µM with methanol. • 2) Preparation of liver microsome working solution: Liver microsomes were diluted to 0.56 mg/mL with 100 mM phosphate-buffered saline. • 3) Preparation of working solution of reduced nicotinamide adenine dinucleotide phosphate (NADPH): A proper amount of NADPH was weighed out and diluted to 20 mM with phosphate-buffered saline, and then an equal volume of a 60 mM MgCl2 solution was added. • 4) Preparation of stop solution: Tolbutamide was diluted to 20 ng/mL with acetonitrile to serve as a stop solution containing an internal standard.
(§3) • 1) Anti-adsorption EP tubes for incubation were prepared and labeled with species, test samples, control samples (testosterone and dextromethorphan), time points (0 min, 5 min, 10 min, 20 min, 30 min, 60 min, Blank60, and NCF60), etc. • 2) 2 µL of test or control sample working solution and 178 µL of liver microsome working solution were added to each tube. For the Blank tube, 2 µL of acetonitrile was added instead of the test sample. The tubes were preincubated in a water bath at 37 °C for about 10 min, with 3 replicates set up for each sample. • 3) After the pre-incubation was completed, 20 µL of NADPH working solution was added to each tube except for the 0 min and NCF60 tubes to start the reaction. For the NCF60 tube, 20 µL of phosphate-buffered saline (containing 30 mM MgCl2) was added. In the incubation system, the final concentration of the test or control sample was 1 µM, the final concentration of liver microsomes was 0.5 mg/mL, the final concentration of NADPH was 1 mM, and the final concentration of MgCl2 was 3 mM. • 4) For the 0 min sample, 600 µL of stop solution was added, followed by the addition of the NADPH working solution. For the other samples, after each of them was incubated for the corresponding time, 600 µL of stop solution was added to stop the reaction. • 5) After the reaction was stopped, each sample was vortexed for 30 s and then centrifuged at 13500 rpm for 10 min. Then, 100 µL of the supernatant was transferred to an EP tube, and 100 µL of Milli-Q water was added. The mixture was well mixed by vortexing and analyzed by LC-MS/MS. • 6) Testosterone and dextromethorphan were used as positive control samples under the same conditions to assess the stability and reliability of the system.
(§4) Table 2: Test data for the compounds of the present disclosure in human and rat liver microsomes

[2] = In-vitro liver microsomal stability (human); assay type: in vitro ADME; conditions: Human liver microsomes, 1 µM, 0.5 mg/mL, NADPH
Protocol: as §1, §2, §3, §4

[3] = In-vitro liver microsomal stability (dog); assay type: in vitro ADME; conditions: Dog liver microsomes, 1 µM, 0.5 mg/mL, NADPH
Protocol: as §1, §2
as §3, with “system. […]” for “system.”

Row | Structure (SMILES) | IC50 (5-HT2A receptor) | pIC50 (hERG potassium channels) | Remaining amount% at 60 min [1] | Remaining amount% at 60 min [2] | Remaining amount% at 60 min [3] | pIC50 (5-HT2A receptor)
1 | CN1CCC(N(Cc2ccc(F)cn2)C(=O)NCc2ccc(OCC(F)(F)F)nc2)C2(CC2)C1 (single isomer, unassigned) [Compound 50A] | 2.6 nM | 5.66 | 58.8% | 89.7% | – | –
2 | CN1CCC(N(Cc2ccc(F)cn2)C(=O)NCc2ccc(OCC(F)(F)F)cn2)CC1 [Compound 1] | 152 nM | 5.31 | – | 85.7% | 88.7% | –
3 | CN1CCC(N(Cc2ccc(F)cn2)C(=O)NCc2ccc3[nH]ccc3c2)CC1 [Compound 9] | 28.2 nM | 5.51 | – | 93.1% | 45.3% | –
4 | CN1CCC(N(Cc2ccc(F)cn2)C(=O)NCc2ccc3ncccc3c2)CC1 [Compound 10] | 29.6 nM | 5.41 | – | 71.9% | 58.6% | –
5 | CN1CCC(N(Cc2ccc(F)cn2)C(=O)NCc2ccc3c(ccn3C)c2)CC1 [Compound 12] | – | 5.65 | 69.21% | 77.06% | – | 6.79
6 | CN1CCC(N(Cc2ccc(F)cn2)C(=O)NCc2cnc(OC3CC(F)(F)C3)c(F)c2)CC1 [Compound 19] | – | – | – | 72.49% | 78.39% | 7.48
7 | CN1CCC(N(Cc2ccc(F)cn2)C(=O)NCc2cnc(OCC(F)(F)F)c(Cl)c2)CC1 [Compound 27] | – | < 4.52 | 63.98% | 50.93% | – | –
8 | CN1CCC(N(Cc2ccc(F)cn2)C(=O)NCc2cnc(OCC(F)(F)F)c(Br)c2)CC1 [Compound 28] | – | < 4.52 | 54.78% | 38.94% | – | –
9 | CN1CC[C@H](N(Cc2ccc(F)cn2)C(=O)NCc2ccc(OCC(F)(F)F)nc2)[C@@H](F)C1 [Compound 66] | – | 5.52 | – | 73.7% | 85.1% | 7.64
10 | CN1CC[C@@H](N(Cc2ccc(F)cn2)C(=O)NCc2ccc(OCC(F)(F)F)nc2)[C@H](F)C1 [Compound 67] | – | – | – | 66.2% | 81.4% | < 6.00
